Tests used:
Assay in all cases: Kinase profiling
Format in all cases: biochemical
PRKX = target: T1, PRKX (Homo sapiens, UniProt P51817)
T1 construct: purchased ProQinase (Freiburg, Germany)
T1 sequence (P51817 1-358): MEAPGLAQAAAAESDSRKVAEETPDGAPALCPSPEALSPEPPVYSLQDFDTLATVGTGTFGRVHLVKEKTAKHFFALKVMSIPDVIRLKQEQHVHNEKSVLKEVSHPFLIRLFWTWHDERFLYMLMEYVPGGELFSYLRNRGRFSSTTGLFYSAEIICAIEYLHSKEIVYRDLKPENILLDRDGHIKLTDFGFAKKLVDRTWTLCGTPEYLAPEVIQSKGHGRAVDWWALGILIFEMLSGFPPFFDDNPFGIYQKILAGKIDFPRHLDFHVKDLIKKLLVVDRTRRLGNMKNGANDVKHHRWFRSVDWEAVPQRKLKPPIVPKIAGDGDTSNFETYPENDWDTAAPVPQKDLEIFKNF
Procedure: (§1) The analysis was performed by ProQinase (Freiburg, Germany).

CK1gamma3 = target: T2, CK1gamma3 (Homo sapiens, UniProt Q9Y6M4)
T2 construct: purchased ProQinase (Freiburg, Germany)
Procedure: as §1

IRAK1 = target: T3, IRAK1 (Homo sapiens, UniProt P51617)
T3 construct: purchased ProQinase (Freiburg, Germany)
Procedure: as §1

JAK1 = target: T4, JAK1 (Homo sapiens, UniProt P23458)
T4 construct: purchased ProQinase (Freiburg, Germany)
Procedure: as §1

CLK2 = target: T5, CLK2 (Homo sapiens, UniProt P49760)
T5 construct: purchased ProQinase (Freiburg, Germany)
Procedure: as §1

SAK = target: T6, SAK (Homo sapiens, UniProt O00444)
T6 construct: purchased ProQinase (Freiburg, Germany)
T6 sequence (O00444 1-970): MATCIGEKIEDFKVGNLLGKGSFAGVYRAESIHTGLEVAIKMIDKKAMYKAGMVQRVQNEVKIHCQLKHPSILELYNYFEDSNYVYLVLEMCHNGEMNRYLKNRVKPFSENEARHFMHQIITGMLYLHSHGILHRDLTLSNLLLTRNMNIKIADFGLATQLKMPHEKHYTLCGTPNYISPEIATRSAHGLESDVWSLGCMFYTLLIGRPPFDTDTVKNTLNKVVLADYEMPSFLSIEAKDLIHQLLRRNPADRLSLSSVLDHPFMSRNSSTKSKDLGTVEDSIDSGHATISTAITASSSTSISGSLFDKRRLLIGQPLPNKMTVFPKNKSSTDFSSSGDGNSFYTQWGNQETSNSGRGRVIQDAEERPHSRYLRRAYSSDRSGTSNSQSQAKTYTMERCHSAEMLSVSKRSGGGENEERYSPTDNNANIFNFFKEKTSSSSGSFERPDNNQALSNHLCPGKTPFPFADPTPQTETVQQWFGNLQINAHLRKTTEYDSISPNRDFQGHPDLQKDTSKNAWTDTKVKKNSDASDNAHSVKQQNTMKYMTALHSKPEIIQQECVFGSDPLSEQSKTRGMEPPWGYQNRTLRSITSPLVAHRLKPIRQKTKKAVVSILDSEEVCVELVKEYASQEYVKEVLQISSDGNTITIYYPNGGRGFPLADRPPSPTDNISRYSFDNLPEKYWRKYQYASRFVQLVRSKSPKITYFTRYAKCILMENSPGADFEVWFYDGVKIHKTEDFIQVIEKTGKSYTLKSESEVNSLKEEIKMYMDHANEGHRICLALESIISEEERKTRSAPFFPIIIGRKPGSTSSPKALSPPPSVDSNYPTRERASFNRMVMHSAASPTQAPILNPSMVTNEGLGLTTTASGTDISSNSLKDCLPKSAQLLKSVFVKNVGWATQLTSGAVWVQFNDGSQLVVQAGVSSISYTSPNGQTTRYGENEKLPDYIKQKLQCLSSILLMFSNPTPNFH
Procedure: as §1

PKCdelta = target: T7, PKCdelta (Homo sapiens, UniProt Q05655)
T7 construct: purchased ProQinase (Freiburg, Germany)
Procedure: as §1

PKCtheta = target: T8, PKCtheta (Homo sapiens, UniProt Q04759)
T8 construct: purchased ProQinase (Freiburg, Germany)
Procedure: as §1

ERK5 = target: T9, ERK5 (Homo sapiens, UniProt Q13164)
T9 construct: purchased ProQinase (Freiburg, Germany)
Procedure: as §1

BRSK2 = target: T10, BRSK2 (Homo sapiens, UniProt Q8IWQ3)
T10 construct: purchased ProQinase (Freiburg, Germany)
T10 sequence (Q8IWQ3 1-736): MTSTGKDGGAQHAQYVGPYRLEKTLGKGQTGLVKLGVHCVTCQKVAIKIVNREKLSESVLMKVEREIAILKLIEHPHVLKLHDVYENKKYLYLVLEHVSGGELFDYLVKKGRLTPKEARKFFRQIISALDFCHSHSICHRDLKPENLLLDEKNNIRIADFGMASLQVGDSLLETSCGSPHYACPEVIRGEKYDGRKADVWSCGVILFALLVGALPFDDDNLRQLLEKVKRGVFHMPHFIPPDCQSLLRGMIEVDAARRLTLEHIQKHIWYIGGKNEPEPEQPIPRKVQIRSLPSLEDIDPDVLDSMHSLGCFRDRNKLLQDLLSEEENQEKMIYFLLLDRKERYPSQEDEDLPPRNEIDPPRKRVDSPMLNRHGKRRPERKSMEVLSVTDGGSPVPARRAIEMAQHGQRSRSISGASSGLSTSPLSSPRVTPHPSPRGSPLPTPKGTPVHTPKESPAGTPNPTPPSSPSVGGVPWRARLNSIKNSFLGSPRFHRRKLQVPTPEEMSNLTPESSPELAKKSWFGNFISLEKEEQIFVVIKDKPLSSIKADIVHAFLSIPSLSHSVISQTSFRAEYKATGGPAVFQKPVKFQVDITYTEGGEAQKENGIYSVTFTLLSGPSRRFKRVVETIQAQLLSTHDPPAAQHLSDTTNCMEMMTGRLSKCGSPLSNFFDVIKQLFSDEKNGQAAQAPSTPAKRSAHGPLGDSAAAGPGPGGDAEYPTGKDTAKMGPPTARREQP
Procedure: as §1

T2 sequence (Q9Y6M4 whole entry): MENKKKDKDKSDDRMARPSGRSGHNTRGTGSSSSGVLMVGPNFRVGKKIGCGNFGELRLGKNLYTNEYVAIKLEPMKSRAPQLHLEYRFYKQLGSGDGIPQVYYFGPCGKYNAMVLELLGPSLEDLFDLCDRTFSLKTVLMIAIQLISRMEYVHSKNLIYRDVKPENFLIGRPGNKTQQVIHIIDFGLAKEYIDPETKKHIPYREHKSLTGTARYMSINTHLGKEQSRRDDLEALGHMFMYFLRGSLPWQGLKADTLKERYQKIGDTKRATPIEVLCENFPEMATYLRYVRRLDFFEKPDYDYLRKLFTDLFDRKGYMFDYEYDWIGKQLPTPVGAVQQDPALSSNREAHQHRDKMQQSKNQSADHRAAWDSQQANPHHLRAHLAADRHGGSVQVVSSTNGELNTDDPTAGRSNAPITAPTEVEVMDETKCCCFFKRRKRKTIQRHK
T7 sequence (Q05655 whole entry): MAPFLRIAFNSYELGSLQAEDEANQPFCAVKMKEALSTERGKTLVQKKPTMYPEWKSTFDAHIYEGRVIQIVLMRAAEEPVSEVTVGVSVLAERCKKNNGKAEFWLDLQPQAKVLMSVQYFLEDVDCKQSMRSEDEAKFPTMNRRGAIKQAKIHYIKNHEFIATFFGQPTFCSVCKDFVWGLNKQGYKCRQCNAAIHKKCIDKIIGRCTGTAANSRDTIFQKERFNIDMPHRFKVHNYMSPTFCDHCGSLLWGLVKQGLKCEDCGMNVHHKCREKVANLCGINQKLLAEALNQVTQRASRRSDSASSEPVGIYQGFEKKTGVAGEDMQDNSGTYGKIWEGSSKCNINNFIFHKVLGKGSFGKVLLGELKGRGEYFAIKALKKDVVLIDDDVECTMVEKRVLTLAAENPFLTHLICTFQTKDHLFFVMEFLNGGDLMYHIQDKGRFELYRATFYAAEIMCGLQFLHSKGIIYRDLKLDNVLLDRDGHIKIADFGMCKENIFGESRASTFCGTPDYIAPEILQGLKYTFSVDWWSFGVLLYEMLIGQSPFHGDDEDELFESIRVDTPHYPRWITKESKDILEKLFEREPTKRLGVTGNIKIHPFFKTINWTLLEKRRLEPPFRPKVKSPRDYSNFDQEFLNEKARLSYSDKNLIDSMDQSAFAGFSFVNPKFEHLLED
T9 sequence (Q13164 whole entry): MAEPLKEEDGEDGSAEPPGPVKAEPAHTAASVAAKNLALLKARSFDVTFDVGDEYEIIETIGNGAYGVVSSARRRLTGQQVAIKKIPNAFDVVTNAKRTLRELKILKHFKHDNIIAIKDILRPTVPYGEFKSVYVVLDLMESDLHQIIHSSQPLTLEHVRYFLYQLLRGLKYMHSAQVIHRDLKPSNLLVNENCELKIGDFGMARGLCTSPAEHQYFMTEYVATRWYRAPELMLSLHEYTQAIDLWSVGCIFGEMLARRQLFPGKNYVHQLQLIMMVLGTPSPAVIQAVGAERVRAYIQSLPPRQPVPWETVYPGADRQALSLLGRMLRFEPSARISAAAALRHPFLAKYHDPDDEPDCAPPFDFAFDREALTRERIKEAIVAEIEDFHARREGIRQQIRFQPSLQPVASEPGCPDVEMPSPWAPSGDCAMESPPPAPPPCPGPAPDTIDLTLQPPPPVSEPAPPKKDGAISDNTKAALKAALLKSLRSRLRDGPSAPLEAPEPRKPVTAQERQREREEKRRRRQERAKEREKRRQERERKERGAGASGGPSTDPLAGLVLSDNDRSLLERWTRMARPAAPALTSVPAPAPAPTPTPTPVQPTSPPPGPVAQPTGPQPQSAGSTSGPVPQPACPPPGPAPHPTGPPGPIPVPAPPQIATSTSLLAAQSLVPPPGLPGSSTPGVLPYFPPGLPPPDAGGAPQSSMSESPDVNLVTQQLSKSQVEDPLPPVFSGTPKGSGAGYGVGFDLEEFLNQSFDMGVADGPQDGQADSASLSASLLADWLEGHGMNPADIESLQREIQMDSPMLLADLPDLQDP
T3 sequence (P51617 whole entry): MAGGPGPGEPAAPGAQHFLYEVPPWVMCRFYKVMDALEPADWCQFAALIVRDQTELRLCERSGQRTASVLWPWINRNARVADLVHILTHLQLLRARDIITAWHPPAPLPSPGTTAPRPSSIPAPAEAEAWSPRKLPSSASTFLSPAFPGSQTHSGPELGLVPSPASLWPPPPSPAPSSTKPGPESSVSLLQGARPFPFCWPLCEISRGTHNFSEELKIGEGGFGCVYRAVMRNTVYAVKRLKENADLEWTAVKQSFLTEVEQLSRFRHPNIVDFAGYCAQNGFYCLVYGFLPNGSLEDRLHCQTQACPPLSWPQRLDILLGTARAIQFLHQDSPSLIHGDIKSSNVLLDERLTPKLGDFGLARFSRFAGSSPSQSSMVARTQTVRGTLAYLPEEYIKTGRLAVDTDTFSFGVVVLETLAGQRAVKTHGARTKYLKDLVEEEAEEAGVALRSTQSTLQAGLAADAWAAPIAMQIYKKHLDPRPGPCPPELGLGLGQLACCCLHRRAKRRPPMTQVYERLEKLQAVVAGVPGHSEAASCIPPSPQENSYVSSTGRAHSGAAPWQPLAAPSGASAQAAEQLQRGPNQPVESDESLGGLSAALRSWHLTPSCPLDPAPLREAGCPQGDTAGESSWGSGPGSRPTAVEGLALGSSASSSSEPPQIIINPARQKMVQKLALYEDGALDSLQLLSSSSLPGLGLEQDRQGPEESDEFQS
T8 sequence (Q04759 whole entry): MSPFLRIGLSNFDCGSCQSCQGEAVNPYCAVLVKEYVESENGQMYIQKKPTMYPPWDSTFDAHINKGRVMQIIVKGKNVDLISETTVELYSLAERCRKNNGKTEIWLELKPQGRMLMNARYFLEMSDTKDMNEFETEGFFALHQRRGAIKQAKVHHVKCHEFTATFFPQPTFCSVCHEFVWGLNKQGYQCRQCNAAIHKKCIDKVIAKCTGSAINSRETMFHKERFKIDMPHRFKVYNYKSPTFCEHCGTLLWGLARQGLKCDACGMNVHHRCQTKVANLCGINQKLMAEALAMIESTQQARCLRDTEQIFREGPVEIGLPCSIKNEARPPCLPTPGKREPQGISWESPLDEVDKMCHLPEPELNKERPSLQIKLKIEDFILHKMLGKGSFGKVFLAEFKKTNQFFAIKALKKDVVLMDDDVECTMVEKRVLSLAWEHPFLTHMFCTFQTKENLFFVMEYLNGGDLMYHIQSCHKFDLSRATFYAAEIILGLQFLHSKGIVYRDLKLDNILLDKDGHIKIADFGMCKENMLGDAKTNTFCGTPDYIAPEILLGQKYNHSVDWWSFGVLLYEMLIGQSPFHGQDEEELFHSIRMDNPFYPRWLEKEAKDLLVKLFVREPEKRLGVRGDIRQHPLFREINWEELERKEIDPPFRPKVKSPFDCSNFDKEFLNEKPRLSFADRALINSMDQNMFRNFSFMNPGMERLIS
T5 sequence (P49760 whole entry): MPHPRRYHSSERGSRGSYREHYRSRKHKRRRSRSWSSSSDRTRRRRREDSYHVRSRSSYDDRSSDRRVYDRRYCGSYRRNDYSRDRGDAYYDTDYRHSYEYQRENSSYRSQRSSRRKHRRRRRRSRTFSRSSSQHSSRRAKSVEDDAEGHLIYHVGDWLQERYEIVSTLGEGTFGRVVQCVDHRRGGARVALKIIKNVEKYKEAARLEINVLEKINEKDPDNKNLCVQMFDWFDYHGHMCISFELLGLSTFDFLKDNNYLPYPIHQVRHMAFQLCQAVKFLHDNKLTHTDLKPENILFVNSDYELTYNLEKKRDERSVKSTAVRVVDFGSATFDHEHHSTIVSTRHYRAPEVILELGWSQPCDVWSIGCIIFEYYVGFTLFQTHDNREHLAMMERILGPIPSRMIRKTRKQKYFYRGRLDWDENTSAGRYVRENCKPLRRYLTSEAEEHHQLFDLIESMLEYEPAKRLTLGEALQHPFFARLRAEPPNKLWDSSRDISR
T4 sequence (P23458 whole entry): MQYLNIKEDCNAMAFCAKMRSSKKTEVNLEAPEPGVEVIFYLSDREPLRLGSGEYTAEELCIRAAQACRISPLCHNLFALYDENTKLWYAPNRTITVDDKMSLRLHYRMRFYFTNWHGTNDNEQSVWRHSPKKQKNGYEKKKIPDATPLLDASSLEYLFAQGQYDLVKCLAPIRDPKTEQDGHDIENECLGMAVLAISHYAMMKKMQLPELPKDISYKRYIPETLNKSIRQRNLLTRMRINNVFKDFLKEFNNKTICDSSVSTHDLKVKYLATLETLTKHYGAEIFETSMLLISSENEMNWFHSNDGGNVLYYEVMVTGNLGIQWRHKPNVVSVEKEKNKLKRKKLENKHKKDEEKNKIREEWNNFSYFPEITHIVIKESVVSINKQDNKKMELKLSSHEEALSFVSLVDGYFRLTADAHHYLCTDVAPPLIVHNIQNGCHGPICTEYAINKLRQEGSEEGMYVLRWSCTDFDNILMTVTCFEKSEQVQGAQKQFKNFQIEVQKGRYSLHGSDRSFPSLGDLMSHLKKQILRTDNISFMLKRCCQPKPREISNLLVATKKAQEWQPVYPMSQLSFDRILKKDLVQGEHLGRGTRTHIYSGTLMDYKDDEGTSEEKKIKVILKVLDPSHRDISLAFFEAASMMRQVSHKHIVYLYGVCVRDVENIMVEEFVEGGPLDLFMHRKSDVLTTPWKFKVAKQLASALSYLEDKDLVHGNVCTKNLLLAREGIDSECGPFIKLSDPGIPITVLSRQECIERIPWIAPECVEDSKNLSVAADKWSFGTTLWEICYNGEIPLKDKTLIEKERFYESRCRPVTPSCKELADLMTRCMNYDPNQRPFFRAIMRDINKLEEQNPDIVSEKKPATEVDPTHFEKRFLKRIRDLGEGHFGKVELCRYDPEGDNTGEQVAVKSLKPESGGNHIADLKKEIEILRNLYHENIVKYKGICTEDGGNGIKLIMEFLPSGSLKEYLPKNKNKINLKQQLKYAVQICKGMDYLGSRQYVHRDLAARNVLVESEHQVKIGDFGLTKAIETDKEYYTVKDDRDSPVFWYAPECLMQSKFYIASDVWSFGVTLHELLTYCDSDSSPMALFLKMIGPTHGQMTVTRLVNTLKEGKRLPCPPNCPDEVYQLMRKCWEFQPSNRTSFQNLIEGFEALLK

| SMILES | Residual activity (PRKX; 1.0E-05 M) | Residual activity (PRKX; 1.0E-06 M) | Residual activity (CK1gamma3; 1.0E-05 M) | Residual activity (CK1gamma3; 1.0E-06 M) | Residual activity (IRAK1; 1.0E-05 M) | Residual activity (IRAK1; 1.0E-06 M) | Residual activity (JAK1; 1.0E-05 M) | Residual activity (JAK1; 1.0E-06 M) | Residual activity (CLK2; 1.0E-05 M) | Residual activity (CLK2; 1.0E-06 M) | Residual activity (SAK; 1.0E-05 M) | Residual activity (SAK; 1.0E-06 M) | Residual activity (PKCdelta; 1.0E-05 M) | Residual activity (PKCdelta; 1.0E-06 M) | Residual activity (PKCtheta; 1.0E-05 M) | Residual activity (PKCtheta; 1.0E-06 M) | Residual activity (ERK5; 1.0E-05 M) | Residual activity (ERK5; 1.0E-06 M) | Residual activity (BRSK2; 1.0E-05 M) | Residual activity (BRSK2; 1.0E-06 M) | other results |
| --- | --- | --- | --- | --- | --- | --- | --- | --- | --- | --- | --- | --- | --- | --- | --- | --- | --- | --- | --- | --- | --- |
| O=C(Nc1ccc(F)c(Nc2ccc3c(c2)CCCCC3=O)c1)c1cccc(F)c1 [Compound 109] | 85 % of control | 95 % of control | 32 % of control | 79 % of control | 104 % of control | 100 % of control | 88 % of control | 77 % of control | 103 % of control | 112 % of control | 71 % of control | 89 % of control | 66 % of control | 107 % of control | 84 % of control | 106 % of control | 93 % of control | 90 % of control | 100 % of control | 109 % of control | inhibition at 10 µM (CK1gamma3; 10 µM, read-out: inhibition of CK1-γ3): ≥ 50% |
| O=C(Cc1ccccc1)Nc1ccc(F)c(Nc2ccc3c(c2)CCCCC3=O)c1 [Compound 100] | 88 % of control | 102 % of control | 105 % of control | 101 % of control | 106 % of control | 107 % of control | 85 % of control | 88 % of control | 107 % of control | 117 % of control | 81 % of control | 92 % of control | 82 % of control | 98 % of control | 82 % of control | 104 % of control | 103 % of control | 80 % of control | 99 % of control | 113 % of control | – |

— article PMC9030254, “Target Hopping from Protein Kinases to PXR: Identification of Small-Molecule Protein Kinase Inhibitors as Selective Modulators of Pregnane X Receptor from TüKIC Library” (Cells, 2022)
